Consider one compound from article PMC6099102, “Effect of the Nature of Donor Atoms on the Thermodynamic, Kinetic and Relaxation Properties of Mn(II) Complexes Formed With Some Trisubstituted 12-Membered Macrocyclic Ligands” (Frontiers in Chemistry, 2018).

This data set in a line: Longitudinal water proton relaxivity (r1p) of the Mn(II) complexes. The data set is classed as physicochemical. As to conditions: 0.5 T field strength, 25 °C and pH = 7.4. As for the experimental part:
The relaxometric data were collected using a Bruker Minispec MQ20 NMR relaxometer. […] A datapoint plotted on figures represents an average of 5–6 T1 measurements (Figures S3–S9 in Supplementary Material). The data were fitted by using the molar r1p relaxivity value of the MnCl2 ([…] at 0.49 T and 25 °C). The equilibrium constants were calculated using the PSEQUAD program (Zékány and Nagypál, [1985]).
The longitudinal water proton relaxation rates (r1 = 1/T1-1/Tw) were measured at 20 MHz with a Bruker Minispec MQ-20 relaxometer (Bruker Biospin, Germany). Samples were thermostated by using a circulating water bath at 25.0 ± 0.2 °C. The longitudinal relaxation times (T1) were measured by the inversion-recovery method (180° − τ − 90°), averaging 5–6 data points collected for each concentration point obtained from 14 different τ values (τ values ranging between 0 to at least 6 times the expected T1). The relaxivity of the complexes was determined by titrating a nearly 1.0 mM ligand solution with a Mn(II) stock solution at pH = 7.22–7.43 (50 mM HEPES buffer, I = 0.15 M NaCl, 25 °C). Under these conditions, the only Mn(II) ion containing species present in solution is the [Mn(L)], which was supported by the r1 vs. pH profiles. The relaxivity of the complex was determined as the slope of the strait line obtained by plotting 1/T1p values as a function of Mn(II) concentration for samples with [Ligand] > [Mn(II)]. The relaxivity of [Mn(DOTP)]^6− and [Mn(DO3P)]^4− was determined in the pH range of 10.0–11.0 and 8.5–9.3, respectively where mainly the [Mn(DO3P)]^4− and [Mn(DOTP)]^6− complex exists in solution (Figures S4 and S9 in Supplementary Material).
The relaxivity (r1p, mM^−1s^−1) is defined as the longitudinal water proton relaxation rate in a solution containing 1.0 mM concentration of the paramagnetic species. It characterizes the efficiency of a paramagnetic metal chelate to enhance the solvent proton relaxation rate at a given magnetic field (usually 20 MHz) and temperature. The inner-sphere contribution to relaxivity is directly proportional to the number of metal bound water molecules (q), and therefore, relaxivity values may provide some useful information on the hydration state of paramagnetic complexes of similar molecular weights and electronic relaxation times. […] The r1p values of the Mn(II) complexes formed with heptadentate 12-membered macrocyclic ligands were determined at 0.5 T field strength and 25 °C and reported in Table 4 along with some relaxivity data published for the complexes of hexa-, hepta- and octadentate ligands. […] Below these pH ranges the phosphonate moieties undergo protonation, which further increases the relaxivity (2.60–2.90 mM^−1s^−1 values were observed near pH = 7.4, see Supplementary Material). Similar increase in the relaxivity (to 3.20 mM^−1s^−1 at 20 MHz, 37 °C) is observed for the [Mn(DOTA)]^2− complex upon its protonation and formation of the thermodynamically stable diprotonated [Mn(H2DOTA)] complex that exists as a non-hydrated chelate both in solution and in the solid state (Wang and Westmoreland, [2009]). The relaxivity of the diprotonated species at t → 0 time point was determined from the extrapolation of the relaxivity vs. time data collected after acidification of the samples containing the complexes. The X-ray crystallographic structure of [Mn(H2DOTA)] indicates the protonation of two trans carboxylate moieties (e.g., the coordination around the metal ion is similar to that observed in [Mn(trans-DO2A)] as determined by DFT calculations). Thus, the relaxivity of the diprotonated [Mn(H2DOTA)] and [Mn(H2DOTMA)] complexes is expected to be similar to that of [Mn(trans-DO2A)] (when q = 0). The value obtained by us is considerably higher, which highlights the importance of prototropic exchange as a useful tool to improve the relaxivity of the complexes (however, it has to be underlined that the protonation of the complex generally leads to a decrease in kinetic inertness).

The structures appear in SMILES notation.

Consider `O=C(CN1CCN(CC(=O)N2CCCCC2)Cc2cccc(n2)CN(CC(=O)N2CCCCC2)CC1)N1CCCCC1.[Mn+2]` [[Mn(PC3AM^Pip)]^2+], for which the r1p amounted to 1.28 mM⁻¹ s⁻¹.
